Results published in ChEMBL document CHEMBL3046692, “Antifeedant effect of commercial chemicals and plant extracts against Schistocerca americana (Orthoptera: Acrididae) and Diaprepes abbreviatus (Coleoptera: Curculionidae)” (2011).
The source made the active and inactive calls. The calls are words filed in the database; no cut-off is given here.

Assays:
Diaprepes abbreviatus [1] = experiment: Antifeedant activity against Diaprepes abbreviatus in compound treated healthy romaine lettuce plants assessed as area consumed from leaf disk at 48 g/l by No-choice tests (2.51 +/- 0.2 cm'2); format: functional
Diaprepes abbreviatus [2] = experiment: Antifeedant activity against Diaprepes abbreviatus in compound treated healthy romaine lettuce plants assessed as area consumed from leaf disk at 48 g/l by choice tests (1.47 +/- 0.1 cm'2); format: functional
Schistocerca americana [3] = experiment: Antifeedant activity against Schistocerca americana in compound treated healthy romaine lettuce plants assessed as area consumed from leaf disk at 48 g/l by choice tests (1.88 +/- 0.2 cm'2); format: functional
Diaprepes abbreviatus [4] = experiment: Antifeedant activity against Diaprepes abbreviatus in compound treated Citrus paradisi MacFad (Rutaceae) potted plants assessed as reduction in leaf consumption measured under 12 hr sunlight exposure at 5.6 ml/l by No-choice tests; format: functional, organism-based
Diaprepes abbreviatus [5] = experiment: Antifeedant activity against Diaprepes abbreviatus in compound treated Citrus paradisi MacFad (Rutaceae) potted plants assessed as reduction in leaf consumption measured under 8 hr sunlight exposure at 5.6 ml/l by No-choice tests; format: functional, organism-based
Diaprepes abbreviatus [6] = experiment: Antifeedant activity against Diaprepes abbreviatus in compound treated Citrus paradisi MacFad (Rutaceae) potted plants assessed as reduction in leaf consumption measured under 4 hr sunlight exposure at 5.6 ml/l by No-choice tests; format: functional, organism-based
Diaprepes abbreviatus [7] = experiment: Antifeedant activity against Diaprepes abbreviatus in compound treated healthy romaine lettuce plants assessed as area consumed from leaf disk at 18 g/l by No-choice tests (2.48 +/- 0.1 cm'2); format: functional
Diaprepes abbreviatus [8] = experiment: Antifeedant activity against Diaprepes abbreviatus in compound treated healthy romaine lettuce plants assessed as area consumed from leaf disk at 18 g/l by choice tests (1.19 +/- 0.1 cm'2); format: functional
Schistocerca americana [9] = experiment: Antifeedant activity against Schistocerca americana in compound treated healthy romaine lettuce plants assessed as area consumed from leaf disk at 18 g/l by No-choice tests (3.14 +/- 0.1 cm'2); format: functional
Schistocerca americana [10] = experiment: Antifeedant activity against Schistocerca americana in compound treated healthy romaine lettuce plants assessed as area consumed from leaf disk at 18 g/l by choice tests (2.28 +/- 0.1 cm'2); format: functional
Diaprepes abbreviatus [11] = experiment: Antifeedant activity against Diaprepes abbreviatus in compound treated Citrus paradisi MacFad (Rutaceae) potted plants assessed as reduction in leaf consumption measured under 12 hr sunlight exposure at 18 g/l by No-choice tests; format: functional, organism-based
Diaprepes abbreviatus [12] = experiment: Antifeedant activity against Diaprepes abbreviatus in compound treated Citrus paradisi MacFad (Rutaceae) potted plants assessed as reduction in leaf consumption measured under 8 hr sunlight exposure at 18 g/l by No-choice tests; format: functional, organism-based
Diaprepes abbreviatus [13] = experiment: Antifeedant activity against Diaprepes abbreviatus in compound treated Citrus paradisi MacFad (Rutaceae) potted plants assessed as reduction in leaf consumption measured under 4 hr sunlight exposure at 18 g/l by No-choice tests; format: functional, organism-based
Schistocerca americana [14] = experiment: Antifeedant activity against Schistocerca americana in compound treated Citrus paradisi MacFad (Rutaceae) potted plants assessed as area consumed from leaf disk measured under different 12 hr sunlight exposure at 18 g/l by No-choice tests; format: functional, organism-based
Schistocerca americana [15] = experiment: Antifeedant activity against Schistocerca americana in compound treated Citrus paradisi MacFad (Rutaceae) potted plants assessed as area consumed from leaf disk measured under different 8 hr sunlight exposure at 18 g/l by No-choice tests; format: functional, organism-based
Schistocerca americana [16] = experiment: Antifeedant activity against Schistocerca americana in compound treated Citrus paradisi MacFad (Rutaceae) potted plants assessed as area consumed from leaf disk measured under different 4 hr sunlight exposure at 18 g/l by No-choice tests; format: functional, organism-based
Schistocerca americana [17] = experiment: Antifeedant activity against Schistocerca americana in compound treated healthy romaine lettuce plants assessed as area consumed from leaf disk at 31.3 ml/l by choice tests (1.79 +/- 0.2 cm'2); format: functional
Diaprepes abbreviatus [18] = experiment: Antifeedant activity against Diaprepes abbreviatus in compound treated healthy romaine lettuce plants assessed as area consumed from leaf disk at 31.3 ml/l by choice tests (1.39 +/- 0.1 cm'2); format: functional
Diaprepes abbreviatus [19] = experiment: Antifeedant activity against Diaprepes abbreviatus in compound treated healthy romaine lettuce plants assessed as area consumed from leaf disk at 5.6 ml/l by No-choice tests (1.40 +/- 0.1 cm'2); format: functional
Diaprepes abbreviatus [20] = experiment: Antifeedant activity against Diaprepes abbreviatus in compound treated healthy romaine lettuce plants assessed as area consumed from leaf disk at 5.6 ml/l by choice tests (1.45 +/- 0.1 cm'2); format: functional
Schistocerca americana [21] = experiment: Antifeedant activity against Schistocerca americana in compound treated healthy romaine lettuce plants assessed as area consumed from leaf disk at 5.6 ml/l by No-choice tests (3.10 +/- 0.1 cm'2); format: functional
Schistocerca americana [22] = experiment: Antifeedant activity against Schistocerca americana in compound treated healthy romaine lettuce plants assessed as area consumed from leaf disk at 5.6 ml/l by choice tests (2.62 +/- 0.1 cm'2); format: functional
Schistocerca americana [23] = experiment: Antifeedant activity against Schistocerca americana in compound treated Citrus paradisi MacFad (Rutaceae) potted plants assessed as area consumed from leaf disk measured under 4 hr sunlight exposure at 18 g/l by No-choice tests; format: functional, organism-based
Schistocerca americana [24] = experiment: Antifeedant activity against Schistocerca americana in compound treated Citrus paradisi MacFad (Rutaceae) potted plants assessed as area consumed from leaf disk measured under 4 hr sunlight exposure at 5.6 ml/l by No-choice tests; format: functional, organism-based
Schistocerca americana [25] = experiment: Antifeedant activity against Schistocerca americana in compound treated Citrus paradisi MacFad (Rutaceae) potted plants assessed as area consumed from leaf disk measured under 8 hr sunlight exposure at 18 g/l by No-choice tests; format: functional, organism-based
Schistocerca americana [26] = experiment: Antifeedant activity against Schistocerca americana in compound treated Citrus paradisi MacFad (Rutaceae) potted plants assessed as area consumed from leaf disk measured under 8 hr sunlight exposure at 5.6 ml/l by No-choice tests; format: functional, organism-based

C=C(C)[C@H]1Cc2c(ccc3c2O[C@@H]2COc4cc(OC)c(OC)cc4[C@@H]2C3=O)O1 [ROTENONE]
Activity (Diaprepes abbreviatus [1]): 2.42 cm2 | Activity (Diaprepes abbreviatus [2]): 0.24 cm2 | Activity (Schistocerca americana [3]): 1.64 cm2 | Activity (Diaprepes abbreviatus [4]): inactive | Activity (Diaprepes abbreviatus [5]): inactive | Activity (Diaprepes abbreviatus [6]): inactive

CC(C)[C@@]1(O)[C@@H](OC(=O)c2cc[nH]c2)[C@@]2(O)[C@]3(C)C[C@@]4(O)O[C@@]5([C@H](O)[C@@H](C)CC[C@]35O)[C@@]2(O)[C@@]41C [RYANODINE]
Activity (Diaprepes abbreviatus [7]): 1.46 cm2 | Activity (Diaprepes abbreviatus [8]): 0.48 cm2 | Activity (Schistocerca americana [9]): 2.35 cm2 | Activity (Schistocerca americana [10]): 0.76 cm2 | Activity (Diaprepes abbreviatus [11]): inactive | Activity (Diaprepes abbreviatus [12]): inactive | Activity (Diaprepes abbreviatus [13]): inactive | Activity (Schistocerca americana [14]): inactive | Activity (Schistocerca americana [15]): inactive | Activity (Schistocerca americana [16]): inactive

COc1cc(CNC(=O)CCCC/C=C/C(C)C)ccc1O [CAPSAICIN]
Activity (Schistocerca americana [17]): 1.08 cm2 | Activity (Diaprepes abbreviatus [18]): 1.02 cm2

C/C=C(\C)C(=O)O[C@H]1C[C@@H](OC(C)=O)[C@@]2(C(=O)OC)CO[C@H]3[C@@H](O)[C@@](C)([C@]45O[C@@]4(C)[C@@H]4C[C@H]5O[C@@H]5OC=C[C@@]54O)[C@H]4[C@]1(CO[C@]4(O)C(=O)OC)[C@@H]32 [AZADIRACHTIN A]
Activity (Diaprepes abbreviatus [19]): 1.8 cm2 | Activity (Diaprepes abbreviatus [20]): 0.74 cm2 | Activity (Schistocerca americana [21]): 0.29 cm2 | Activity (Schistocerca americana [22]): 0.4 cm2 | Activity (Schistocerca americana [14]): inactive | Activity (Schistocerca americana [15]): inactive | Activity (Schistocerca americana [16]): inactive | Activity (Schistocerca americana [23]): inactive | Activity (Schistocerca americana [24]): inactive | Activity (Schistocerca americana [25]): Active | Activity (Schistocerca americana [26]): Active
